Experiments:
[1] = test system: acetaminophen-induced liver injury; experiment: Acetaminophen-induced liver injury in mice treated with GC and vitamins, serum ALT and AST (Example 2); assay type: in vivo, Male C57B1/6 mice; conditions: 24 hr after acetaminophen; vitamins by gavage, with or without 100 μg GC two hours before acetaminophen
Protocol: Male C57B1/6 mice (11-12 weeks old) were obtained from Harlan Laboratories (Jerusalem, Israel) and maintained in the Animal Core of the Hadassah-Hebrew University Medical School. β-glucosylceramide (GC) was purchased from Avanti Polar Lipids (Alabaster, Ala., USA). […] Acetaminophen Sigma (cat. # A7085), was dissolved in a mixture of 30% Cremophor EL (Sigma, Rehovot, Israel) and ethanol (1:1) in DDW (Di distilled water). Mice were tested for serum Alanine transaminase (ALT) and Aspartate aminotransferase (AST) at 24 hours after acetaminophen administration. Serum AST and ALT levels were measured by an automatic analyzer. Mice of all groups (eight per group) were fasted for eight hours before oral administration of acetaminophen and for additional four hours after administration. […] Animals were sacrificed after 24 hours, and liver damage was assessed in all groups by examining serum levels of ALT, AST, GSH and TNF-α.

hepatic NKT cells = experiment: Flow cytometry of hepatic NKT lymphocytes (CD3+NK1.1+) after acetaminophen; assay type: in vivo, mice; conditions: pretreatment before acetaminophen
Protocol: For intrahepatic lymphocytes, livers were first crushed through a stainless mesh (size 60, Sigma) and cell suspension was placed in a 50-mL tube for 5 min to pellet the cell debris. Ten milliliters of Lymphoprep (Ficoll, Axis-Shield PoC AS, Oslo, Norway) was slowly placed under the same volume of cell suspension in 50-mL tubes. The tubes were then centrifuged at 1800 rpm for 18 min. Cells at the interface were collected and transferred to new tubes, which were then centrifuged at 1800 rpm for 10 min, to obtain a cell pellet depleted of hepatocytes in a final volume of 250 μl. Approximately 1×10^6 cells/mouse liver were recovered.
Flow cytometry was performed following lymphocyte isolation using 1×10^6 lymphocytes in 100 μl PBS. […] Pacigic Blue anti mouse CD4, FITC-anti mouse CD8 subsets were also used ((eBioscience, USA). For intracellular staining we used PE-anti mouse CD25 and PE-Cy7 anti mouse FOXp3 (eBioscience, USA). Cells were incubated for 30 min at 4° C. in the dark, and washed and resuspended in 200 μl PBS. Analytical cell sorting was performed on 1×10^4 cells from each group using a fluorescence-activated cell sorter (FACSTAR plus, Becton Dickinson). Only live cells were counted and unstained cells served as controls for background fluorescence. Gates were set on forward- and side-scatters to exclude dead cells and red blood cells. […]

[2] = test system: acetaminophen-induced liver injury; experiment: Acetaminophen-induced liver injury in mice treated with GC, serum ALT and AST (Example 1); assay type: in vivo, Male C57B1/6 mice; design: ALT levels: unit not given here; conditions: for ALT levels: p<0.001; for AST levels: control group A 6634, p<0.04
Protocol: Male C57B1/6 mice (11-12 weeks old) were obtained from Harlan Laboratories (Jerusalem, Israel) and maintained in the Animal Core of the Hadassah-Hebrew University Medical School. β-glucosylceramide (GC) was purchased from Avanti Polar Lipids (Alabaster, Ala., USA). Glycolipids (3.3 mg/ml) were dissolved in a mixture of 30% Cremophor EL (Sigma, Rehovot, Israel) and ethanol (1:1, C:E) in PBS. Acetaminophen Sigma (cat. # A7085), was dissolved in a mixture of 30% Cremophor EL (Sigma, Rehovot, Israel) and ethanol (1:1) in DDW (Di distilled water). […] Serum AST and ALT levels were measured by an automatic analyzer. Beta glycolipides were previously shown by the present inventors as having immunomodulatory effects. […] The inventors therefore next examined whether such effect may also enhance the glutathione system and thereby ameliorate hepatic injury induced by drugs such as acetaminophen. The effect of GC on acetaminophen-induced liver injury was evaluated by examination of liver enzyme (ALT and AST). Three groups of mice, 15 animals per group, were studied. Mice of all groups were fasted for eight hours before oral administration of acetaminophen and for additional four hours after administration. Mice in all groups were administered orally (PO) with 10 mg/330 μl acetaminophen (in C:E gavage administration). In addition, mice were administered with 100 μg β-glucosylceramide (β-GC, in 30 μl of C:E) two hours before administration of acetaminophen (Group B) and every two hours after acetaminophen administration (Group C), Mice in control group A were treated only with oral PBS.

Compound	effect on ALT levels (FIG. 4) [1]	change in hepatic NKT cells (hepatic NKT cells)	ALT levels ([2]; 12 hr after acetaminophen 10 mg PO, 100 μg GC every two hours after acetaminophen (Group C), control group A 505)	ALT levels ([2]; 12 hr after acetaminophen 10 mg PO, 100 μg GC two hours before acetaminophen (Group B), control group A 505)	AST levels ([2]; 24 hr after acetaminophen, GC every two hours after acetaminophen (Group C))	ALT levels ([2]; 24 hr after acetaminophen, GC every two hours after acetaminophen (Group C), control group A 12150)	AST levels ([2]; 24 hr after acetaminophen, GC two hours before acetaminophen (Group B))	ALT levels ([2]; 24 hr after acetaminophen, GC two hours before acetaminophen (Group B), control group A 12150)
O=C1O[C@H]([C@@H](O)CO)C(O)=C1O [vitamin C, L-Ascorbic acid]	negligible effect							
Cc1c(C)c2c(c(C)c1O)CC[C@@](C)(CCC[C@H](C)CCC[C@H](C)CCCC(C)C)O2 [vitamin E, α-Tocopherol]	negligible effect	became significant						
β-glucosylceramide [GC]		small increase	364	332	4029	5034	3650	5222
